Structures can show the parent of a compound that is named as a salt.
Assays:
NaV1.1 = NaV1.1 (Homo sapiens (Human), UniProt P35498); experiment: Sodium Influx Assay (Flux), NaV1.1; type: cell-based; settings: Trex HEK293 cells, ANG2 dye; arithmetic mean
NaV1.6 = NaV1.6 (Homo sapiens (Human), UniProt Q9UQD0); experiment: Sodium Influx Assay (Flux), NaV1.6; settings: read-out: Flux NaV1.6 IC50; Trex HEK293 cells, ANG2 dye; arithmetic mean
NaV1.5 = NaV1.5 (Homo sapiens (Human), UniProt Q14524); experiment: Sodium Influx Assay (Flux), NaV1.5; settings: read-out: Flux NaV1.5 IC50; Trex HEK293 cells, ANG2 dye; arithmetic mean
Sequence of NaV1.5 (Q14524 other isoform, or with tags, fused parts or gaps): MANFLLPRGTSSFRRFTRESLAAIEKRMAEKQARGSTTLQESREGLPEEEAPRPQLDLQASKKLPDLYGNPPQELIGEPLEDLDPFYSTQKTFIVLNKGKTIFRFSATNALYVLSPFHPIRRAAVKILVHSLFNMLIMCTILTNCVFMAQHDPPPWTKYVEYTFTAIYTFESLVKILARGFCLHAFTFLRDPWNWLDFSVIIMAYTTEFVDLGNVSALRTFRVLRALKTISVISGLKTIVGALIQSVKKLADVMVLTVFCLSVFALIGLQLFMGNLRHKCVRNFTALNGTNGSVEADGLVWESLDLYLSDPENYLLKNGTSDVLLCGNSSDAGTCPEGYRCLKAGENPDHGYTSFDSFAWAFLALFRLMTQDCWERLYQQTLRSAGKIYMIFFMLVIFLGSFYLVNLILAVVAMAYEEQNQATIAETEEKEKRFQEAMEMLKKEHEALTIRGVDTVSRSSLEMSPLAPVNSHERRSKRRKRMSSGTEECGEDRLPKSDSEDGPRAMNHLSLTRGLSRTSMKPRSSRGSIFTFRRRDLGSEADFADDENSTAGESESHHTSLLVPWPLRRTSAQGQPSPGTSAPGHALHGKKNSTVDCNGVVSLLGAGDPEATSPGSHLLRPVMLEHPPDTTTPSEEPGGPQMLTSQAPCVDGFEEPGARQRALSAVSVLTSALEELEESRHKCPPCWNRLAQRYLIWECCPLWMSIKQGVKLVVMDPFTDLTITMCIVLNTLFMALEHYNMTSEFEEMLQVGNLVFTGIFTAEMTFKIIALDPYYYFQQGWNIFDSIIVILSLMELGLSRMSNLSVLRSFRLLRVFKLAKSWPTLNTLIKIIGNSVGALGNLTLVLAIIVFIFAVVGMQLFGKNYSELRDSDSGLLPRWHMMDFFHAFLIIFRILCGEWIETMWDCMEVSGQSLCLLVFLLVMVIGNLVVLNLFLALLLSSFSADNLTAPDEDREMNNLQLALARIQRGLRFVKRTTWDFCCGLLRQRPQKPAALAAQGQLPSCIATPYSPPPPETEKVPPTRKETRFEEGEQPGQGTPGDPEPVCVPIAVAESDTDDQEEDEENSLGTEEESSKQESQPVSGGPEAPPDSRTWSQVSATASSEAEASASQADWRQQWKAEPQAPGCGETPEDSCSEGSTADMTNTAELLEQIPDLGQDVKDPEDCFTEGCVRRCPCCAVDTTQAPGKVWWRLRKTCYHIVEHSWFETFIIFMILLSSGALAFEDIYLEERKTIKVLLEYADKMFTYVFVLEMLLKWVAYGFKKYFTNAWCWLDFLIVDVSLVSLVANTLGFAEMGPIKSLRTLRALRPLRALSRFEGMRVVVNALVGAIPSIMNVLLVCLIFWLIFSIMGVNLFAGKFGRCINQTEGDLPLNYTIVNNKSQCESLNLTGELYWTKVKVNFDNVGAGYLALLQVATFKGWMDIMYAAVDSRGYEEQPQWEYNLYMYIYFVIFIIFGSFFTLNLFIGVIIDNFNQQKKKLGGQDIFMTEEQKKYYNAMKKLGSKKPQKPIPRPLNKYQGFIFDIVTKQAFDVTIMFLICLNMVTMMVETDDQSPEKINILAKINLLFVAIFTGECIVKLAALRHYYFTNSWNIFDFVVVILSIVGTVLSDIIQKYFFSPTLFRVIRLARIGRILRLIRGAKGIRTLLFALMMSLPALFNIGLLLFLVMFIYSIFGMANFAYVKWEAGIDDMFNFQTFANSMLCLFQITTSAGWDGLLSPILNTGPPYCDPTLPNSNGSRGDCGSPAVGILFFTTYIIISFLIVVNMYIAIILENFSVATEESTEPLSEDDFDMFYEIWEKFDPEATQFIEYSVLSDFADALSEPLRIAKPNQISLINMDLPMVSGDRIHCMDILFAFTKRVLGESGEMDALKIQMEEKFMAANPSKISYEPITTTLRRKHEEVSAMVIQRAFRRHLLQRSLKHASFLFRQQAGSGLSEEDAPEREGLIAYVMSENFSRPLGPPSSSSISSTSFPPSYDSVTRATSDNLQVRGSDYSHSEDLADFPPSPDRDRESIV

Row | SMILES | IC50 (NaV1.1) [µM] | IC50 (NaV1.6) [µM] | IC50 (NaV1.5) [µM]
1 | CN(c1cc(F)c(S(=O)(=O)Nc2cscn2)cc1Cl)[C@H]1CCN(Cc2nc(C(F)F)ccc2F)C1 [Example 163, (S)-5-chloro-4-((1-((6-(difluoromethyl)-3-fluoropyridin-2-yl)methyl)pyrrolidin-3-yl)(methyl)amino)-2-fluoro-N-(thiazol-4-yl)benzenesulfonamide formate] | > 30 | 2.8 | > 30
2 | CN(c1cc(F)c(S(=O)(=O)Nc2cscn2)cc1Cl)[C@H]1CCN(Cc2ccc(C(F)(F)F)o2)C1 [Example 164, (S)-5-chloro-2-fluoro-4-(methyl(1-((5-(trifluoromethyl)furan-2-yl)methyl)pyrrolidin-3-yl)amino)-N-(thiazol-4-yl)benzene-sulfonamide 2,2,2-trifluoroacetate] | 6.03 | 4.45 | 12.9
3 | CN(c1cc(F)c(S(=O)(=O)Nc2cscn2)cc1Cl)[C@H]1CCN(C2Cc3ccccc3C2)C1 [Example 166, (S)-5-chloro-4-((1-(2,3-dihydro-1H-inden-2-yl)pyrrolidin-3-yl)(methyl)amino)-2-fluoro-N-(thiazol-4-yl)benzene-sulfonamide formate] | 7.79 | 3.67 | 10.1
4 | Cc1ccc(CN2CC[C@H](N(C)c3cc(F)c(S(=O)(=O)Nc4cscn4)cc3Cl)C2)c(F)c1 [Example 167, (S)-5-chloro-2-fluoro-4-((1-(2-fluoro-4-methylbenzyl)pyrrolidin-3-yl)(methyl)amino)-N-(thiazol-4-yl)benzene-sulfonamide] | 6.44 | 1.69 | 8.85
5 | CN(c1cc(F)c(S(=O)(=O)Nc2cscn2)cc1Cl)[C@H]1CCN(Cc2cccc(OC(F)F)c2)C1 [Example 168, (S)-5-chloro-4-((1-(3-(difluoromethoxy)benzyl)-pyrrolidin-3-yl)(methyl)amino)-2-fluoro-N-(thiazol-4-yl)benzene-sulfonamide formate] | 4.17 | 2.02 | 5.89
6 | COc1ccc(F)c(CN2CC[C@H](N(C)c3cc(F)c(S(=O)(=O)Nc4cscn4)cc3Cl)C2)c1 [Example 173, (S)-5-chloro-2-fluoro-4-((1-(2-fluoro-5-methoxybenzyl)-pyrrolidin-3-yl)(methyl)amino)-N-(thiazol-4-yl)benzene-sulfonamide 2,2,2-trifluoroacetate] | 8.75 | 3.34 | 9.86
7 | CN(c1cc(F)c(S(=O)(=O)Nc2cscn2)cc1Cl)[C@H]1CCN(CCC(C)(C)C)C1 [Example 175, (S)-5-chloro-4-((1-(3,3-dimethylbutyl)-pyrrolidin-3-yl)(methyl)amino)-2-fluoro-N-(thiazol-4-yl)benzene-sulfonamide 2,2,2-trifluoroacetate] | 13.2 | 2.55 | > 30
8 | CC(C)Oc1cccc(CN2CC[C@H](N(C)c3cc(F)c(S(=O)(=O)Nc4cscn4)cc3Cl)C2)c1 [Example 177, (S)-5-chloro-2-fluoro-4-((1-(3-isopropoxybenzyl)-pyrrolidin-3-yl)(methyl)amino)-N-(thiazol-4-yl)benzene-sulfonamide compound with triethylamine (1:0.35)] | 3.91 | 3.15 | 7.52
9 | CN(c1cc(F)c(S(=O)(=O)Nc2cscn2)cc1Cl)[C@H]1CCN(Cc2cccc(Br)n2)C1 [Example 178, (S)-4-((1-((6-bromopyridin-2-yl)methyl)pyrrolidin-3-yl)(methyl)amino)-5-chloro-2-fluoro-N-(thiazol-4-yl)benzene-sulfonamide] | 12.9 | 1.09 | 16
10 | CN(c1cc(F)c(S(=O)(=O)Nc2cscn2)cc1Cl)[C@H]1CCN(Cc2c[nH]c3ccccc23)C1 [Example 182, (S)-4-((1-((1H-indol-3-yl)methyl)pyrrolidin-3-yl)(methyl)amino)-5-chloro-2-fluoro-N-(thiazol-4-yl)benzene-sulfonamide 2,2,2-trifluoroacetate] | 9.41 | 0.877 | 9.86
11 | CN(c1cc(F)c(S(=O)(=O)Nc2cscn2)cc1Cl)[C@H]1CCN(Cc2ccn(C)n2)C1 [Example 183, (S)-5-chloro-2-fluoro-4-(methyl(1-((1-methyl-1H-pyrazol-3-yl)methyl)pyrrolidin-3-yl)amino)-N-(thiazol-4-yl)benzene-sulfonamide] | > 30 | 6.93 | > 30
12 | CN(c1cc(F)c(S(=O)(=O)Nc2cscn2)cc1Cl)[C@H]1CCN(Cc2ncc3ccccn23)C1 [Example 184, (S)-5-chloro-2-fluoro-4-((1-(imidazo[1,5-a]pyridin-3-ylmethyl)pyrrolidin-3-yl)(methyl)amino)-N-(thiazol-4-yl)benzene-sulfonamide] | > 30 | 5.38 | > 30
13 | CN(c1cc(F)c(S(=O)(=O)Nc2cscn2)cc1Cl)[C@H]1CCN(Cc2ccnc(C(F)(F)F)c2)C1 [Example 185, (S)-5-chloro-2-fluoro-4-(methyl(1-((2-(trifluoromethyl)-pyridin-4-yl)methyl)pyrrolidin-3-yl)amino)-N-(thiazol-4-yl)benzene-sulfonamide] | 8.81 | 7.02 | 22.4
14 | CN(c1cc(F)c(S(=O)(=O)Nc2cscn2)cc1Cl)[C@H]1CCN(Cc2cccc3ccncc23)C1 [Example 186, (S)-5-chloro-2-fluoro-4-((1-(isoquinolin-8-ylmethyl)pyrrolidin-3-yl)(methyl)amino)-N-(thiazol-4-yl)benzene-sulfonamide 2,2,2-trifluoroacetate] | 19.2 | 3.27 | 20.1
15 | CN(c1cc(F)c(S(=O)(=O)Nc2cscn2)cc1Cl)[C@H]1CCN(Cc2cccc(C(F)(F)F)n2)C1 [Example 187, (S)-5-chloro-2-fluoro-4-(methyl(1-((6-(trifluoromethyl)-pyridin-2-yl)methyl)pyrrolidin-3-yl)amino)-N-(thiazol-4-yl)benzene-sulfonamide] | 17.3 | 1.01 | 25.4
16 | COc1cccc(CN2CC[C@H](N(C)c3cc(F)c(S(=O)(=O)Nc4cscn4)cc3Cl)C2)n1 [Example 194, (S)-5-chloro-2-fluoro-4-((1-((6-methoxypyridin-2-yl)methyl)pyrrolidin-3-yl)(methyl)amino)-N-(thiazol-4-yl)benzene-sulfonamide] | 29.2 | 3.2 | 23.5

The next lines start with results.

Row | IC50 (NaV1.1) [µM] | IC50 (NaV1.6) [µM] | SMILES | IC50 (NaV1.5) [µM]
17 | 4.62 | 0.821 | CN(c1cc(F)c(S(=O)(=O)Nc2cscn2)cc1Cl)[C@H]1CCN(Cc2c(F)cccc2Cl)C1 [Example 169, (S)-5-chloro-4-((1-(2-chloro-6-fluorobenzyl)pyrrolidin-3-yl)(methyl)amino)-2-fluoro-N-(thiazol-4-yl)benzene-sulfonamide 2,2,2-trifluoroacetate] | 5.27
18 | 2.35 | 1.86 | CCCc1ccc(CN2CC[C@H](N(C)c3cc(F)c(S(=O)(=O)Nc4cscn4)cc3Cl)C2)cc1 [Example 171, (S)-5-chloro-2-fluoro-4-(methyl(1-(4-propylbenzyl)-pyrrolidin-3-yl)amino)-N-(thiazol-4-yl)benzene-sulfonamide] | 4.96
19 | 5.45 | 0.432 | Cc1ccc(F)c(CN2CC[C@H](N(C)c3cc(F)c(S(=O)(=O)Nc4cscn4)cc3Cl)C2)c1 [Example 172, (S)-5-chloro-2-fluoro-4-((1-(2-fluoro-5-methylbenzyl)-pyrrolidin-3-yl)(methyl)amino)-N-(thiazol-4-yl)benzene-sulfonamide 2,2,2-trifluoroacetate] | 4.97
20 | 10.2 | 9.16 | COC(=O)c1cccc(CN2CC[C@H](N(C)c3cc(F)c(S(=O)(=O)Nc4cscn4)cc3Cl)C2)c1 [Example 174, methyl (S)-3-((3-((2-chloro-5-fluoro-4-(N-(thiazol-4-yl)sulfamoyl)-phenyl)(methyl)-amino)pyrrolidin-1-yl)methyl)benzoate] | 16.2
21 | 16.8 | 5.29 | CN(c1cc(F)c(S(=O)(=O)Nc2cscn2)cc1Cl)[C@H]1CCN(Cc2ccc(F)cc2)C1 [Example 180, (S)-5-chloro-2-fluoro-4-((1-(4-fluorobenzyl)-pyrrolidin-3-yl)(methyl)amino)-N-(thiazol-4-yl)benzene-sulfonamide] | 25.4
22 | > 30 | 3.15 | CN(c1cc(F)c(S(=O)(=O)Nc2cscn2)cc1Cl)[C@H]1CCN(Cc2cccn2C)C1 [Example 181, (S)-5-chloro-2-fluoro-4-(methyl(1-((1-methyl-1H-pyrrol-2-yl)methyl)pyrrolidin-3-yl)amino)-N-(thiazol-4-yl)benzene-sulfonamide] | > 30
23 | 3.25 | 4.15 | CN(c1cc(F)c(S(=O)(=O)Nc2cscn2)cc1Cl)[C@H]1CCN(Cc2ccc(Cl)cc2)C1 [Example 188, (S)-5-chloro-4-((1-(4-chlorobenzyl)-pyrrolidin-3-yl)(methyl)amino)-2-fluoro-N-(thiazol-4-yl)benzene-sulfonamide] | 8.24
24 | 8.9 | 0.587 | Cc1cccc(CN2CC[C@H](N(C)c3cc(F)c(S(=O)(=O)Nc4cscn4)cc3Cl)C2)c1F [Example 191, (S)-5-chloro-2-fluoro-4-((1-(2-fluoro-3-methylbenzyl)-pyrrolidin-3-yl)(methyl)amino)-N-(thiazol-4-yl)benzene-sulfonamide] | 8.21
25 | 5.1 | 1.49 | CN(c1cc(F)c(S(=O)(=O)Nc2cscn2)cc1Cl)[C@H]1CCN(Cc2cc(Cl)ccc2F)C1 [Example 195, (S)-5-chloro-4-((1-(5-chloro-2-fluorobenzyl)pyrrolidin-3-yl)(methyl)amino)-2-fluoro-N-(thiazol-4-yl)benzenesulfonamide] | 3.78
